Assay results taken from patent publication US20220279787A1, “a-Substituted Phenyl Structure-Containing Compound, Preparation Method Thereof, and Disinfectant” (Henan Ruibo Pharmaceutical Technology Co. Ltd., priority 2019, published 2022).

How the values were obtained:
Assay type in all cases: cell-based
[1] = system: Escherichia coli ATCC 25922; experiment: Suspension quantitative sterilization experiment, Escherichia coli ATCC 25922
Method: (§1) (5) Operation Method of Suspension Quantitative Experiment:
(§2) a. The freeze-dried strain tube was provided, opened up under an aseptic condition, and an appropriate amount of nutrient broth was added thereto with a capillary pipette. The strain was melted and dispersed by gently blowing and sucking several times. A test tube containing 5.0 mL-10.0 mL of nutrient broth medium was provided, and a small amount of bacterial suspension was dropped thereto, and incubated at 37° C. for 18 h-24 h. The bacterial suspension of the first generation culture was taken by using an inoculation loop, and streaked and inoculated onto a nutrient agar medium plate, and incubated at 37° C. for 18 h-24 h. The typical colonies from the second generation culture was picked out, inoculated onto a nutrient agar slant, and incubated at 37° C. for 18 h-24 h, obtaining the third generation culture.
(§3) b. The monoclonal strains of the third generation culture of Escherichia coli ATCC 25922, Staphylococcus aureus ATCC 29213, and Pseudomonas aeruginosa ATCC 27853 were picked out respectively and placed in 3 mL of NMB. The strains were shaken in a constant temperature culture shaker for 3 h with a rotation speed of 220 rpm, obtaining a bacterial suspension with a concentration of (1-5)×10^8 CFU/mL.
(§4) c. 0.5 mL of bacterial suspension was added to a sterile test tube, and 0.5 mL of an organic interfering substance (0.03 mol/L PBS buffer) was then added thereto. They were mixed to be uniform, and placed in a water bath at 20° C.±1° C. for 5 min. 4.0 mL of the sample to be tested prepared in step (1) was drawn with a sterile pipette and injected into the mixed solution, mixed quickly, and the time was recorded immediately.
(§5) d. After the experimental bacteria interacted with the sample to be tested for the predetermined time of 1 min, 5 min, 15 min and 30 min. 0.5 mL of the mixture of the experimental bacteria and the sample to be tested was drawn respectively and added to 4.5 mL of a neutralizer, and mixed to be uniform.
(§6) e. After 10 min of neutralization, 1.0 mL of the sample solution was drawn, and the number of viable bacteria was determined by viable count method. After the viable count method, sample solution of each pipette was inoculated onto 2 plates. When the number of colonies growing on the plate was large, 10-fold dilution was performed, and then the viable bacteria was cultured and counted.
(§7) f. At the same time, PBS buffer was used to replace the sample to be tested, and a parallel test was performed as a positive control.
(§8) g. All test samples were placed in a 37° C. incubator overnight, and the results were observed.
(§9) h. The experiment was repeated for 3 times, the concentration of viable bacteria (CFU/mL) of each group was calculated, and converted to logarithmic value (N), and then the killing logarithmic value was calculated according to the following equation:
(§10) Killing logarithmic value (KL)=the logarithmic value of the average viable bacteria concentration of the control group (No)−the logarithmic value of the viable bacteria concentration of the test group (Nx).
(§11) When calculating the killing logarithmic value, two digits after the decimal point was kept, and digital round-off was allowed.

[2] = system: Pseudomonas aeruginosa ATCC 27853; experiment: Suspension quantitative sterilization experiment, Pseudomonas aeruginosa ATCC 27853
Method: as §1, §2, §3, §4, §5, §6, §7, §8, §9, §10, §11

[3] = system: Staphylococcus aureus ATCC 29213; experiment: Suspension quantitative sterilization experiment, Staphylococcus aureus ATCC 29213
Method: as §1, §2, §3, §4, §5, §6, §7, §8, §9, §10, §11

Work on `Cc1cc(O)cc(C)c1Cl` [4-Chloro-3,5-dimethylphenol solution, 4-chloro-3,5-dimethylphenol] yielded a Killing logarithmic value ([1]; 0.15 g/L, 1 min) of 1.69, a Killing logarithmic value ([1]; 0.15 g/L, 5 min) of 1.78 and a Killing logarithmic value ([1]; 0.15 g/L, 15 min) of 2.32. The Killing logarithmic value ([1]; 0.15 g/L, 30 min) was 2.99, the Killing logarithmic value ([1]; 0.31 g/L, 1 min) was 6.17 and the Killing logarithmic value ([1]; 0.31 g/L, 5 min) was 6.17. For the same compound, the Killing logarithmic value ([1]; 0.31 g/L, 15 min) was 6.17, the Killing logarithmic value ([1]; 0.31 g/L, 30 min) was 6.17 and the Killing logarithmic value ([2]; 0.15 g/L, 1 min) was 0.78. It also gave a Killing logarithmic value ([2]; 0.15 g/L, 5 min) of 0.87, a Killing logarithmic value ([2]; 0.15 g/L, 15 min) of 0.94 and a Killing logarithmic value ([2]; 0.15 g/L, 30 min) of 0.96. The Killing logarithmic value ([2]; 0.31 g/L, 1 min) was 4.77, the Killing logarithmic value ([2]; 0.31 g/L, 5 min) was 4.87 and the Killing logarithmic value ([2]; 0.31 g/L, 15 min) was 4.91. For the same compound, the Killing logarithmic value ([2]; 0.31 g/L, 30 min) was 4.95, the Killing logarithmic value ([3]; 0.15 g/L, 1 min) was 2.07 and the Killing logarithmic value ([3]; 0.15 g/L, 5 min) was 2.74. The Killing logarithmic value ([3]; 0.15 g/L, 15 min) was 2.90, the Killing logarithmic value ([3]; 0.15 g/L, 30 min) was 3.16 and the Killing logarithmic value ([3]; 0.31 g/L, 1 min) was 3.12. The Killing logarithmic value ([3]; 0.31 g/L, 5 min) was 3.30, the Killing logarithmic value ([3]; 0.31 g/L, 15 min) was 3.45 and the Killing logarithmic value ([3]; 0.31 g/L, 30 min) was 4.13.

`Oc1ccccc1` [Phenol solution, Phenol] showed a Killing logarithmic value ([1]; 0.15 g/L, 1 min) of 0.21, a Killing logarithmic value ([1]; 0.15 g/L, 5 min) of 0.29 and a Killing logarithmic value ([1]; 0.15 g/L, 15 min) of 0.43. It also gave a Killing logarithmic value ([1]; 0.15 g/L, 30 min) of 0.47, a Killing logarithmic value ([1]; 0.31 g/L, 1 min) of 0.29 and a Killing logarithmic value ([1]; 0.31 g/L, 5 min) of 0.31. It also gave a Killing logarithmic value ([1]; 0.31 g/L, 15 min) of 0.46, a Killing logarithmic value ([1]; 0.31 g/L, 30 min) of 0.58 and a Killing logarithmic value ([1]; 0.78 g/L, 1 min) of 0.32. The Killing logarithmic value ([1]; 0.78 g/L, 5 min) was 0.46, the Killing logarithmic value ([1]; 0.78 g/L, 15 min) was 0.63 and the Killing logarithmic value ([1]; 0.78 g/L, 30 min) was 0.79. It also gave a Killing logarithmic value ([1]; 1.56 g/L, 1 min) of 0.47, a Killing logarithmic value ([1]; 1.56 g/L, 5 min) of 0.65 and a Killing logarithmic value ([1]; 1.56 g/L, 15 min) of 0.78. The Killing logarithmic value ([1]; 1.56 g/L, 30 min) was 0.99, the Killing logarithmic value ([1]; 3.12 g/L, 1 min) was 0.69 and the Killing logarithmic value ([1]; 3.12 g/L, 5 min) was 0.76. The Killing logarithmic value ([1]; 3.12 g/L, 15 min) was 0.81, the Killing logarithmic value ([1]; 3.12 g/L, 30 min) was 1.02 and the Killing logarithmic value ([1]; 6.25 g/L, 1 min) was 3.57. For the same compound, the Killing logarithmic value ([1]; 6.25 g/L, 5 min) was 3.69, the Killing logarithmic value ([1]; 6.25 g/L, 15 min) was 5.86 and the Killing logarithmic value ([1]; 6.25 g/L, 30 min) was 6.17. For the same compound, the Killing logarithmic value ([2]; 0.15 g/L, 1 min) was 0.46, the Killing logarithmic value ([2]; 0.15 g/L, 5 min) was 0.51 and the Killing logarithmic value ([2]; 0.15 g/L, 15 min) was 0.57. The Killing logarithmic value ([2]; 0.15 g/L, 30 min) was 0.67, the Killing logarithmic value ([2]; 0.31 g/L, 1 min) was 0.76 and the Killing logarithmic value ([2]; 0.31 g/L, 5 min) was 0.79. The Killing logarithmic value ([2]; 0.31 g/L, 15 min) was 0.84, the Killing logarithmic value ([2]; 0.31 g/L, 30 min) was 0.93 and the Killing logarithmic value ([2]; 0.78 g/L, 1 min) was 0.99. It also gave a Killing logarithmic value ([2]; 0.78 g/L, 5 min) of 1.08, a Killing logarithmic value ([2]; 0.78 g/L, 15 min) of 1.12 and a Killing logarithmic value ([2]; 0.78 g/L, 30 min) of 1.16. It also gave a Killing logarithmic value ([2]; 1.56 g/L, 1 min) of 1.21, a Killing logarithmic value ([2]; 1.56 g/L, 5 min) of 1.25 and a Killing logarithmic value ([2]; 1.56 g/L, 15 min) of 1.34. It also gave a Killing logarithmic value ([2]; 1.56 g/L, 30 min) of 1.65, a Killing logarithmic value ([2]; 3.12 g/L, 1 min) of 1.56 and a Killing logarithmic value ([2]; 3.12 g/L, 5 min) of 1.86. The Killing logarithmic value ([2]; 3.12 g/L, 15 min) was 1.92, the Killing logarithmic value ([2]; 3.12 g/L, 30 min) was 1.98 and the Killing logarithmic value ([2]; 6.25 g/L, 1 min) was 3.07. The Killing logarithmic value ([2]; 6.25 g/L, 5 min) was 3.65, the Killing logarithmic value ([2]; 6.25 g/L, 15 min) was 4.55 and the Killing logarithmic value ([2]; 6.25 g/L, 30 min) was 5.25. For the same compound, the Killing logarithmic value ([3]; 0.15 g/L, 1 min) was 0.45, the Killing logarithmic value ([3]; 0.15 g/L, 5 min) was 0.48 and the Killing logarithmic value ([3]; 0.15 g/L, 15 min) was 0.55. For the same compound, the Killing logarithmic value ([3]; 0.15 g/L, 30 min) was 0.73, the Killing logarithmic value ([3]; 0.31 g/L, 1 min) was 0.67 and the Killing logarithmic value ([3]; 0.31 g/L, 5 min) was 0.69. For the same compound, the Killing logarithmic value ([3]; 0.31 g/L, 15 min) was 0.73, the Killing logarithmic value ([3]; 0.31 g/L, 30 min) was 0.86 and the Killing logarithmic value ([3]; 0.78 g/L, 1 min) was 0.79. It also gave a Killing logarithmic value ([3]; 0.78 g/L, 5 min) of 0.82, a Killing logarithmic value ([3]; 0.78 g/L, 15 min) of 0.89 and a Killing logarithmic value ([3]; 0.78 g/L, 30 min) of 0.95. The Killing logarithmic value ([3]; 1.56 g/L, 1 min) was 0.86, the Killing logarithmic value ([3]; 1.56 g/L, 5 min) was 0.91 and the Killing logarithmic value ([3]; 1.56 g/L, 15 min) was 0.99. The Killing logarithmic value ([3]; 1.56 g/L, 30 min) was 1.02, the Killing logarithmic value ([3]; 3.12 g/L, 1 min) was 1.13 and the Killing logarithmic value ([3]; 3.12 g/L, 5 min) was 1.21. It also gave a Killing logarithmic value ([3]; 3.12 g/L, 15 min) of 1.23, a Killing logarithmic value ([3]; 3.12 g/L, 30 min) of 1.26 and a Killing logarithmic value ([3]; 6.25 g/L, 1 min) of 2.52. The Killing logarithmic value ([3]; 6.25 g/L, 5 min) was 2.62, the Killing logarithmic value ([3]; 6.25 g/L, 15 min) was 2.74 and the Killing logarithmic value ([3]; 6.25 g/L, 30 min) was 2.99.
